Test results as given in patent publication EP1428520A2, “Lipase inhibitors in deodorants and antiperspirants” (Henkel Kommanditgesellschaft auf Aktien, priority 2002, dated 2004).

Test system: Lipase (Fa. Sigma) aus Pseudomonas species
Assay: In vitro lipase inhibition test (Lipase Color Liquid assay, photometric release of methylresorufin)
Type: biochemical
Details: 37°C, pH 8.4, activity without inhibitor = 100%
From the text: Die hemmende Wirkung der Enzym-Inhibitoren wurde in vitro an einem geeigneten Modellenzym nachgewiesen. Da eine hautrelevante Lipase nicht zur Verfügung stand, diente die Lipase (Fa. Sigma) aus Pseudomonas species als Modellenzym, um die Hemmwirkung der erfindungsgemäß verwendeten Inhibitoren zu testen. Als Referenz diente Hinokitiol.
Der Nachweis der Lipase-Enzymaktivität erfolgt analog zu den Angaben im Lipase Color Liquid Autom ―Datenblatt der Fa. Sentinel. Hierbei wird die Lipase-katalysierte Spaltung von 1,2-O-dilauryl-rac-glycero-3-glutarsäure-(6'-methylresorufin)-ester in Glutarsäure und Methylresorufin bestimmt. Die Freisetzung des Methylresorufin verursacht eine Purpurfärbung (λ = 580 nm), deren Bildung photometrisch verfolgt wird. [drawing 4]
Der Assay wurde nach Herstellerangaben (37°C, Gesamtvolumen 1.21 ml) durchgeführt und enthielt: 37 mM Tris-Puffer (pH 8.4), 1,6 mM Desoxycholat, 6.6 mM Taurodesoxycholat, 0.9 mg/l Colipase, 1.5 mM Tartrat, 0.1 mM CaCl2 und 0.24 mM 1,2-O-dilauryl-rac-glycero-3-glutaric acid-(6'-methylresorufin)-ester (Substrat). Die Reaktion wurde mit 0.005 U Lipase (10 µl) gestartet und nach einer Inkubation von einer Minute die Zunahme der Absorption bei […] über 2 min verfolgt. Der lineare Anstieg der Absorption (A) pro Zeiteinheit (t) war hierbei ein Maß für die Aktivität des Enzyms (ΔA/Δt). Die Aktivität des Enzyms in Abwesenheit eines Inhibitors, (ΔA1/Δt1 ), wurde als Referenz gleich 100% gesetzt. Unter analogen Bedingungen wurden die Aktivitäten in Gegenwart eines Inhibitors (ΔA2/Δt2) bestimmt. Die Hemmwirkung des Inhibitors bzw. die Minderung der Enzymaktivität entspricht dann: 100% - (ΔA2/Δt2 )/( ΔA1/Δt1 )%.

Structure (SMILES): CCCCCCCCCCCC(=O)NC(CCC(=O)O)C(=O)O (stereo not drawn) [Protelan AGL95PV, Natriumlauroylglutamat]
- Hemmwirkung (Minderung der Lipase-Aktivität) (inhibitor concentration 0,01 % (v/v)): 29%
- Hemmwirkung (Minderung der Lipase-Aktivität) (inhibitor concentration 0,1 % (v/v)): 56%
- Hemmwirkung (Minderung der Lipase-Aktivität) (inhibitor concentration 1 % (v/v)): 85%
